From US12180204B1, “2-(benzo[d]thiazol-2-yl)-N′-(2-(5-phenyl-1,3,4-oxadiazol-2-ylthio)acetoxy)acetimidamide as an antimicrobial compound” (priority 2023, dated 2024)

Tested on: Bacillus cereus, Staphylococcus aureus, Pseudomonas aeruginosa, Escherichia coli, Aspergillus flavus, Chrysosporium keratinophilum
Experiment: Agar plate disc-diffusion antimicrobial test
Assay type: cell-based
Conditions: disc wetted with 10 μL of 10 mg/mL in DMSO; 37° C., 48 h, 72 h for fungi; DMSO control zone subtracted
Experimental: The agar plate disc-diffusion method was applied. Sterilized filter papers (6 mm in diameter) were wetted with 10 μL of a solution of 2-(benzo[d]thiazol-2-yl)-N′-(2-(5-phenyl-1,3,4-oxadiazol-2-ylthio)acetoxy)acetimidamide (3) to be tested, containing 10 mg/mL in DMSO, and the discs were allowed to air dry. The discs were then placed onto the surface of agar plates (nutrient agar for bacteria and Sabouraud's dextrose agar for fungi) seeded with the test organism. Each plate contained 15 mL of the agar medium, previously seeded with 0.2 mL of the broth culture of each organism pregrown for 18 hours. The plates were incubated at 37° C. for 48 h, and 72 h for fungi. The inhibition zones were measured in mm. Discs impregnated with DMSO were used as a control, and its inhibition zone was subtracted from the tested compound actual inhibition zone. […] The antibacterial activity was screened against gram positive bacteria namely Bacillus cereus and Staphylococcus aureus and gram-negative bacterial strains namely Pseudomonas aeruginosa and Escherichia coli, while the antifungal activity was screened against Aspergillus flavus and Chrysosporium keratinophilum.

For `N/C(Cc1nc2ccccc2s1)=N\OC(=O)CSc1nnc(-c2ccccc2)o1` [compound 3, 2-(benzo[d]thiazol-2-yl)-N′-(2-(5-phenyl-1,3,4-oxadiazol-2-ylthio)acetoxy)acetimidamide], the “antimicrobial activities (inhibition zones)” value was “high antimicrobial activities”.
